{
  "source": "patent US12419824B2",
  "about": "“Compounds useful for the treatment and/or care of the skin, hair, nails and/or mucous membranes” (Lubrizol Advanced Materials, Inc., priority 2019, dated 2025)",
  "key": {"[1]": {"tested_on": "Muscle bind like protein 1 (MBNL1)", "experiment": "MBNL1 quantification in human skeletal muscle cells by TR-FRET (Examples 7, 19)", "assay_type": "cell-based", "conditions": "hSkMc (Innoprot), 0.5 mg/ml, 48 hours, normalized to total protein", "procedure": "MBNL1 induction by the peptides of the invention is evaluated by a Time resolved fluorescence resonance energy transfer (TR-FRET) assay. The aim of this study is to investigate the capacity of peptide candidates to increase MBNL1 in human skeletal muscle cells (hSkMc).\nhSkMc (Innoprot) are seeded in 12-well plates at a density of 1.5×10^4 cells/well in Skeletal Muscle Cell Growth Medium (Promocell). After 72 hours incubation, medium is removed and replaced with Skeletal Muscle Cell Differentiation Medium (Promocell). 48 hours after beginning cell differentiation, fresh differentiation medium with 0.5 mg/ml of test items is added. Treatment is continued for 48 hours and non-treated cells are used as basal control. After 48 hours of treatment, cell medium is removed and added cell lysis buffer to wells. Immediately, plates are kept at −80° C. in order to improve protein extraction during the defrosting process. After 72 hours, cells are lysated by shaking the plates in an orbital rotor at room temperature for 45 minutes. Next, cell lysates are collected and assayed to quantify the level of MBNL1 protein and total protein concentration.\nMBNL1 protein levels measurement is performed with Human MBNL1 Assay Kit (Cisbio) according to the manufacturer's protocol. Briefly, the kit is used to perform a TR-FRET for MBNL1 quantification. The protein is detected with the antibodies provided in the kit and quantified by a fluorescence measurement. The quantification is carried out by using a microplate reader (ClarioStar, BMG) set to 665 nm and 620 nm.\nTotal protein concentration of cell lysate is determined by using Pierce BCA Protein Assay Kit™ (Thermo Scientific) according to manufacturer's protocol. In brief, after adding Working Reagent to the samples and the standards, the samples are incubated. Afterwards, color change is measured with an absorbance microplate reader (Clariostar™, BMG) at 562 nm. The total protein amount is used to normalize the level of MBNL1 protein concentration obtained by the TR-FRET test in the samples.\nDifferent peptides of the invention are tested as disclosed in Example 7 at 0.5 mg/mL."}, "[2]": {"tested_on": "human subcutaneous pre-adipocytes", "experiment": "Lipid accumulation in human subcutaneous pre-adipocytes, Adipored staining (Example 13)", "assay_type": "cell-based", "conditions": "coculture of young and old pre-adipocytes, 0.01 mg/ml, 12 days", "source_text": "The aim of this study is to investigate the capacity of peptide candidates to induce lipid accumulation in human subcutaneous adipocytes, and therefore prevent adipocytes senescence. Measurement of lipid accumulation in a coculture of young and old adipose cells indirectly evaluates the inhibition of senescence-associated secretory phenotype (SASP). A pool of old adipose cells has a higher number of senescent cells. When cocultured with young cells, lipid accumulation observed is below the theoretically expected levels due to senescence induction effect of SASP on young adipocytes.\nInduction of lipid accumulation by the peptides of the invention is evaluated by lipid fluorescent staining with Adipored® Assay Reagent. Human subcutaneous pre-adipocytes (donors, Cell applications) cells are cocultured in 96-well plates at a density of 4×10^3 cells/well each age in Human Preadipocyte Growth Medium (Sigma). Monoculture of each age are seeded at a density of 8×10^3 cells/well as age lipid accumulation controls. After 24 hours incubation, differentiation of pre-adipocytes into adipocytes is induced by changing medium to fresh Human Preadipocyte Differentiation Medium (Promocell). […] Finally, fluorescence intensity and nuclei number are measured by Operetta™ (Perkin Elmer). Fluorescence is normalized by cell nuclei and results are represented respect to cocultured basal control."}},
  "data": [
    {"substance": "Ac-Asp-Val-Tyr-Lys-NH2 (Ac-DVYK-NH2) [PEP1]", "values": [
      {"measurement": "MBNL1 levels compared to the basal control", "setting": "[1]", "result": "increase MBNL1 levels"},
      {"measurement": "lipid accumulation compared to basal control and old control", "setting": "[2]", "result": "increase lipid accumulation in adipocytes"}
    ]},
    {"substance": "H-Ala-Leu-Lys-Pro-Asn-Thr-NH2 (H-ALKPNT-NH2) [PEP2]", "values": [
      {"measurement": "MBNL1 levels compared to the basal control", "setting": "[1]", "result": "increase MBNL1 levels"},
      {"measurement": "lipid accumulation compared to basal control and old control", "setting": "[2]", "result": "increase lipid accumulation in adipocytes"}
    ]}
  ]
}
